Results from US11938208B2, “Antimicrobial mixture” (SYMRISE AG, priority 2019, dated 2024).

Assays:
E.coli (ATCC #8739) = assay: Preservative efficacy test (challenge test) in an anionic emulsion of pH 5.8; assay type: cell-based; settings: for LR (log reduction), day 2 / LR (log reduction), day 7 / LR (log reduction), day 14 / LR (log reduction), day 21 / LR (log reduction), day 28: log 10 reduction vs initial inoculum; for surviving microorganisms (total aerobic plate count), day 2: day 2 after inoculation; for surviving microorganisms (total aerobic plate count), day 2 / surviving microorganisms (total aerobic plate count), day 7 / surviving microorganisms (total aerobic plate count), day 14 / surviving microorganisms (total aerobic plate count), day 21 / surviving microorganisms (total aerobic plate count), day 28: storage 22.5±2.5° C., TNTC = too numerous to count; for surviving microorganisms (total aerobic plate count), day 7: day 7 after inoculation; for surviving microorganisms (total aerobic plate count), day 14: day 14 after inoculation; for surviving microorganisms (total aerobic plate count), day 21: day 21 after inoculation; for surviving microorganisms (total aerobic plate count), day 28: day 28 after inoculation
Method: This test is a reference method that is used to evaluate the preservative efficacy of a test formulation (in the present case an anionic emulsion of pH 5.8 comprising various fatty esters and fatty alcohols as oil bodies and glyceryl stearate citrate as the emulsifier. The formula was inoculated with known populations of microorganisms (0.2 ml of calibrated inoculums into 20 g of the test formulation) and the number of surviving microorganisms was calculated at defined intervals during a 28-day period. The inoculated test products were stored at 22.5±2.5° C. for the 28-day duration. The surviving microorganisms were enumerated via the total aerobic plate count method. For each time point, the log 10 reductions were calculated and were compared to the passing criteria.

mold = settings: moist alfalfa hay; cited from earlier work
[1] = administered intraperitoneally; cited from earlier work
[2] = constituents of Tagetes mendocina; cited from earlier work

Compound	LR (log reduction), day 2 (E.coli (ATCC #8739))	surviving microorganisms (total aerobic plate count), day 2 (E.coli (ATCC #8739))	LR (log reduction), day 7 (E.coli (ATCC #8739))	surviving microorganisms (total aerobic plate count), day 7 (E.coli (ATCC #8739))	LR (log reduction), day 14 (E.coli (ATCC #8739))	LR (log reduction), day 14 (E.coli (ATCC #8739); listed as 0.35% SymSave H)	surviving microorganisms (total aerobic plate count), day 14 (E.coli (ATCC #8739))	LR (log reduction), day 21 (E.coli (ATCC #8739))	LR (log reduction), day 21 (E.coli (ATCC #8739); listed as 0.35% SymSave H)	surviving microorganisms (total aerobic plate count), day 21 (E.coli (ATCC #8739))	surviving microorganisms (total aerobic plate count), day 21 (E.coli (ATCC #8739); listed as 0.35% SymSave H)	LR (log reduction), day 28 (E.coli (ATCC #8739))	LR (log reduction), day 28 (E.coli (ATCC #8739); listed as 0.35% SymSave H)	surviving microorganisms (total aerobic plate count), day 28 (E.coli (ATCC #8739))	surviving microorganisms (total aerobic plate count), day 28 (E.coli (ATCC #8739); listed as 0.35% SymSave H)	prevention of mold growth (mold)	reduction of subcutaneous inflammation [1]	antioxidant activity [2]
CC(=O)c1ccc(O)cc1 [0.25% SymSave H, 4-hydroxyacetophenone]	LR 0	TNTC	LR 0	TNTC	LR 0	LR 2.49	TNTC	LR 3.94	LR 6	6.4 × 10^2	<10	LR 5.35	LR 6	2.5 × 10^1	<10	not prevent mold growth	reducing subcuteaneous inflammation	one of the active constituents
CC(C)=CCC[C@](C)(O)[C@@H]1CC=C(C)CC1 [0.6% D100, Bisabolol]	LR 0	TNTC	LR 0	TNTC	LR 0	–	TNTC	LR 0	–	TNTC	–	LR 0	–	TNTC	–	–	–	–
